Results from patent US10765114B2, “4-amino-6-(pyridyl and 2-substitutedphenyl)-picolinates and 6-amino-2-(pyridyl and 2-substitutedphenyl)-pyrimidine-4-carboxylates and their use as herbicides” (Dow AgroSciences LLC, priority 2013, dated 2020).
Like-named read-outs stand apart in the source and are kept apart here.

Key:
[1] = tested on: Key Grass and Sedge Weeds as well as Grass Crops; assay: Post-Emergent Test II (Table 6); assay type: in vivo; conditions: post-emergence, 336 h, 14 days after application; for pest or weed control at 70 g/ha: 70 g ai/ha; for pest or weed control at 140 g/ha: 140 g ai/ha
Summary of the method: (§1)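 Seedlings are raised 7-21 days in Metro-Mix 360 (pH 6.0-6.8) under greenhouse conditions, then sprayed at the first or second true leaf stage. Application is 187 L/ha, with serial rates down to 1/16× of the highest. Plants are subirrigated, and percent injury is rated visually after 14 days.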

[2] = tested on: Key Broadleaf Weed and Crop Species; assay: Post-Emergent Test II (Table 5); assay type: in vivo; conditions: post-emergence, 336 h; for pest or weed control at 70 g/ha: application rate 70 (kg ai/ha; footnote: g ai/ha); for pest or weed control at 140 g/ha: application rate 140 (kg ai/ha; footnote: g ai/ha)
Summary of the method: as §1

[3] = CYPSS, read-out: Visual Growth Reduction (%) 14 Days After Application CYPSS
[4] = DIGSA: crabgrass (Digitaria sanguinalis), read-out: Visual Growth Reduction (%) 14 Days After Application DIGSA
[5] = ECHSS, read-out: Visual Growth Reduction (%) 14 Days After Application ECHSS
[6] = ORYSS (crop), read-out: Visual Growth Reduction (%) 14 Days After Application ORYSS
[7] = SETFA: giant foxtail (Setaria faberi), read-out: Visual Growth Reduction (%) 14 Days After Application SETFA
[8] = SORVU: grain sorghum (Sorghum vulgare), read-out: Visual Growth Reduction (%) 14 Days After Application SORVU
[9] = TRZSS (crop), read-out: Visual Growth Reduction (%) 14 Days After Application TRZSS
[10] = ZEAMX: maize, corn (Zea mays), read-out: Visual Growth Reduction (%) 14 Days After Application ZEAMX
[11] = Abutilon theophrasti, ABUTH: velvetleaf (Abutilon theophrasti), read-out: Visual Growth Reduction (%) 14 Days After Application ABUTH
[12] = Amaranthus retroflexus, AMARE: redroot pigweed (Amaranthus retroflexus), read-out: Visual Growth Reduction (%) 14 Days After Application AMARE
[13] = Brassica napus, BRSSS: oilseed rape, canola (Brassica napus), read-out: Visual Growth Reduction (%) 14 Days After Application BRSSS
[14] = Chenopodium album, CHEAL: lambsquarters (Chenopodium album), read-out: Visual Growth Reduction (%) 14 Days After Application CHEAL
[15] = Euphorbia heterophylla, EPHHL: wild poinsettia (Euphorbia heterophylla), read-out: Visual Growth Reduction (%) 14 Days After Application EPHHL
[16] = Helianthus annuus, HELAN: sunflower (Helianthus annuus), read-out: Visual Growth Reduction (%) 14 Days After Application HELAN
[17] = Viola tricolor, VIOTR: wild pansy (Viola tricolor), read-out: Visual Growth Reduction (%) 14 Days After Application VIOTR

SMILES | pest or weed control at 70 g/ha [1, 3] [%] | pest or weed control at 140 g/ha [1, 3] [%] | pest or weed control at 70 g/ha [1, 4] [%] | pest or weed control at 140 g/ha [1, 4] [%] | pest or weed control at 70 g/ha [1, 6] [%] | pest or weed control at 140 g/ha [1, 6] [%] | pest or weed control at 70 g/ha [1, 8] [%] | pest or weed control at 140 g/ha [1, 8] [%] | pest or weed control at 70 g/ha [1, 9] [%] | pest or weed control at 140 g/ha [1, 9] [%] | pest or weed control at 70 g/ha [1, 10] [%] | pest or weed control at 140 g/ha [1, 10] [%] | pest or weed control at 70 g/ha [2, 11] [%] | pest or weed control at 140 g/ha [2, 11] [%] | pest or weed control at 70 g/ha [2, 12] [%] | pest or weed control at 140 g/ha [2, 12] [%] | pest or weed control at 70 g/ha [2, 13] [%] | pest or weed control at 140 g/ha [2, 13] [%] | pest or weed control at 70 g/ha [2, 14] [%] | pest or weed control at 140 g/ha [2, 14] [%] | also measured
COC(=O)c1nc(-c2ccc(Cl)c(F)c2CO)cc(N)c1Cl [Compound 29, Methyl 4-amino-3-chloro-6-(4-chloro-3-fluoro-2-(hydroxymethyl)phenyl)picolinate] | 0 to 29 | 0 to 29 | 0 to 29 | 0 to 29 | 0 to 29 | 0 to 29 | 0 to 29 | 0 to 29 | 0 to 29 | 0 to 29 | 0 to 29 | 0 to 29 | 0 to 29 | 0 to 29 | 0 to 29 | 0 to 29 | 0 to 29 | 0 to 29 | 85 to 94 | 85 to 94 | pest or weed control at 70 g/ha [1, 5]: 0 to 29%; pest or weed control at 140 g/ha [1, 5]: 0 to 29%; pest or weed control at 70 g/ha [1, 7]: 0 to 29%; pest or weed control at 140 g/ha [1, 7]: 0 to 29%; pest or weed control at 70 g/ha [2, 15]: 0 to 29%; pest or weed control at 140 g/ha [2, 15]: 0 to 29%; pest or weed control at 70 g/ha [2, 16]: 0 to 29%; pest or weed control at 140 g/ha [2, 16]: 0 to 29%; pest or weed control at 70 g/ha [2, 17]: 0 to 29%; pest or weed control at 140 g/ha [2, 17]: 0 to 29%
COC(=O)c1nc(-c2ccc(Cl)c(F)c2C)nc(N)c1Cl [Compound 31] | 0 to 29 | 0 to 29 | 0 to 29 | 0 to 29 | 0 to 29 | 0 to 29 | 0 to 29 | 0 to 29 | 0 to 29 | 0 to 29 | 0 to 29 | 0 to 29 | 85 to 94 | 85 to 94 | 95 to 100 | 95 to 100 | 30 to 44 | 45 to 59 | 95 to 100 | 95 to 100 | pest or weed control at 70 g/ha [1, 5]: 0 to 29%; pest or weed control at 140 g/ha [1, 5]: 0 to 29%; pest or weed control at 70 g/ha [2, 15]: 0 to 29%; pest or weed control at 140 g/ha [2, 15]: 0 to 29%; pest or weed control at 70 g/ha [2, 16]: 85 to 94%; pest or weed control at 140 g/ha [2, 16]: 85 to 94%; pest or weed control at 70 g/ha [2, 17]: 0 to 29%; pest or weed control at 140 g/ha [2, 17]: 0 to 29%
COC(=O)c1nc(-c2ccc(C(F)(F)F)nc2OC)cc(N)c1Cl [Compound 37] | 0 to 29 | 0 to 29 | 0 to 29 | 0 to 29 | 0 to 29 | 0 to 29 | 0 to 29 | 0 to 29 | 0 to 29 | 0 to 29 | 0 to 29 | 0 to 29 | 75 to 84 | 75 to 84 | 60 to 74 | 75 to 84 | 0 to 29 | 30 to 44 | 85 to 94 | 85 to 94 | pest or weed control at 70 g/ha [1, 7]: 0 to 29%; pest or weed control at 140 g/ha [1, 7]: 0 to 29%; pest or weed control at 70 g/ha [2, 15]: 0 to 29%; pest or weed control at 140 g/ha [2, 15]: 0 to 29%; pest or weed control at 70 g/ha [2, 16]: 0 to 29%; pest or weed control at 140 g/ha [2, 16]: 60 to 74%; pest or weed control at 70 g/ha [2, 17]: 0 to 29%; pest or weed control at 140 g/ha [2, 17]: 0 to 29%
